{"source": "patent US11980774B2", "about": "“Illumination devices and related methods for phototherapeutic light treatments in the presence of vitamins” (priority 2021, dated 2024)", "system": "South African variant of SARS-CoV-2 (SARS-CoV-2 SA)", "assay_type": "cell-based", "details": "10 μM RFN, no ascorbate; 425 nm light 7.5 J/cm^2; FIG. 3B", "data": [{"smiles": "Cc1cc2nc3c(=O)[nH]c(=O)nc-3n(C[C@H](O)[C@H](O)[C@H](O)CO)c2cc1C", "note": "[riboflavin]", "values": [{"measurement": "fold reduction in viral loads of SARS-CoV-2 SA", "value": 642, "unit": "fold"}, {"measurement": "reduction in viral loads of SARS-CoV-2 SA", "value": "~99.8", "unit": "%"}, {"measurement": "reductions in viral loads of SARS-CoV-2 SA", "value": "significant reductions"}]}]}
